From patent publication US10745382B2 (BRISTOL-MYERS SQUIBB COMPANY, priority 2015, dated 2020)
Read-outs that look alike come from different tables or passages of the source.

Molecular target: T1, PD-1/PD-L1 (Homo sapiens, UniProt Q9NZQ7)
T1 construct: made in house; host or cells: HEK293T
Assay: PD-1/PD-L1 Homogenous Time-Resolved Fluorescence (HTRF) binding assay
Conditions: PD-L1-His 10 nM, PD-1-Ig 20 nM, read-out: Range or IC50
How it was run: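 dPBS + 0.1% BSA + 0.05% Tween-20 buffer; Eu-cryptate anti-Ig 1 nM final, APC anti-His 20 nM final; HTRF read. Counter-assays: PD-1-Ig/PD-L2-His 20 & 5 nM, CD80-His/PD-L1-Ig 100 & 10 nM.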

T1 sequence (Q9NZQ7 with tags, fused parts or gaps): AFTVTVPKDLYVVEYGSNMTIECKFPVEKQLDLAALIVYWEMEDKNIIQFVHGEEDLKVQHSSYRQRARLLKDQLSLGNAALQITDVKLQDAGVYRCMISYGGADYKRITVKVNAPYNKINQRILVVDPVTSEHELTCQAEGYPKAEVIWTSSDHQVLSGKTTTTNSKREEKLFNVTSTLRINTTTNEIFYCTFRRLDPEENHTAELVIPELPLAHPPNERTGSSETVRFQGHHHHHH

IC50 (value given as range class) [nM] | IC50 (numeric IC50) [nM] | SMILES
0.21 to 10 |  | Cc1c(COc2cc(OCc3cncc(C#N)c3)c(CN(C)C(C)(CO)CO)cc2Cl)cccc1-c1cccc(OCCCN2CCC(F)(F)C2)c1C [Example 4114, 5-((4-chloro-5-((3′-(3-(3,3-difluoropyrrolidin-1-yl)propoxy)-2,2′-dimethyl-[1,1′-biphenyl]-3-yl)methoxy)-2-(((1,3-dihydroxy-2-methylpropan-2-yl)(methyl)amino)methyl)phenoxy)methyl)nicotinonitrile]
0.21 to 10 |  | Cc1c(COc2cc(OCc3cc(F)cc(F)c3)c(CN3CCCC[C@H]3C(=O)O)cc2Cl)cccc1-c1cccc(OCCCN2CC[C@@H](O)C2)c1C [Example 4521, (S)-1-(5-chloro-2-((3,5-difluorobenzyl)oxy)-4-((3′-(3-((R)-3-hydroxypyrrolidin-1-yl)propoxy)-2,2′-dimethyl-[1,1′-biphenyl]-3-yl)methoxy)benzyl)piperidine-2-carboxylic Acid]
0.21 to 10 |  | Cc1ccccc1-c1cccc(COc2cc(OCc3cncc(C#N)c3)c(CN[C@](C)(CO)C(=O)O)cc2Cl)c1C [Example 3022, (R)-2-((5-chloro-2-((5-cyanopyridin-3-yl)methoxy)-4-((2,2′-dimethyl-[1,1′-biphenyl]-3-yl)methoxy)benzyl)amino)-3-hydroxy-2-methylpropanoic Acid]
 | 3 | Cc1c(COc2cc(OCc3cncc(C#N)c3)c(CN[C@@H](CO)C(=O)O)cc2Cl)cccc1-c1ccc2c(c1C)OCCO2 [Example 3043, (2S)-2-((5-chloro-2-((5-cyanopyridin-3-yl)methoxy)-4-((2-methyl-3-(5-methyl-2,3-dihydrobenzo[b][1,4]dioxin-6-yl)benzyl)oxy)benzyl)amino)-3-hydroxypropanoic Acid]
0.21 to 10 |  | Cc1c(COc2cc(OCc3cncc(S(C)(=O)=O)c3)c(CN3CCCC[C@H]3C(=O)O)cc2Cl)cccc1-c1cccc(OCCCN2CCC(CO)(C(=O)O)C2)c1Cl (single isomer, unassigned) [Example 1062]
0.21 to 10 |  | Cc1c(COCCN2CC[C@@H](O)C2)cccc1-c1cccc(COc2cc(OCc3cncc(C#N)c3)c(CN(C)C3(C(=O)O)CC3)cc2Cl)c1C [Example 4129, (R)-1-((5-chloro-2-((5-cyanopyridin-3-yl)methoxy)-4-((3′-((2-(3-hydroxypyrrolidin-1-yl)ethoxy)methyl)-2,2′-dimethyl-[1,1′-biphenyl]-3-yl)methoxy)benzyl)(methyl)amino)cyclopropane-1-carboxylic Acid]
0.21 to 10 |  | Cc1c(COc2cc(OCc3cncc(C#N)c3)c(CN(C)[C@@](C)(CO)C(=O)O)cc2Cl)cccc1-c1cccc(OCCCN2CC[C@@H](O)C2)c1C [Example 4108, (S)-2-((5-chloro-2-((5-cyanopyridin-3-yl)methoxy)-4-((3′-(3-((R)-3-hydroxypyrrolidin-1-yl)propoxy)-2,2′-dimethyl-[1,1′-biphenyl]-3-yl)methoxy)benzyl)(methyl)amino)-3-hydroxy-2-methylpropanoic Acid]
0.21 to 10 |  | Cc1c(COc2cc(OCc3cncc(C#N)c3)c(CN3CCCC[C@H]3C(=O)O)cc2Cl)cccc1-c1cccc(OCCCN[C@H](CO)C(C)C)c1C [Example 2238, (2S)-1-(5-chloro-2-((5-cyanopyridin-3-yl)methoxy)-4-((3′-(3-((S)-1-hydroxy-3-methylbutan-2-ylamino)propoxy)-2,2′-dimethylbiphenyl-3-yl)methoxy)benzyl)piperidine-2-carboxylic Acid]
0.21 to 10 |  | Cc1c(COc2cc(OCc3cncc(C#N)c3)c(CN[C@@H](Cc3ccccc3)C(=O)O)cc2Cl)cccc1-c1cccc(OCCCN2CC[C@@H](O)C2)c1C [Example 4152, (5-chloro-2-((5-cyanopyridin-3-yl)methoxy)-4-((3′-(3-((R)-3-hydroxypyrrolidin-1-yl)propoxy)-2,2′-dimethyl-[1,1′-biphenyl]-3-yl)methoxy)benzyl)-L-phenylalanine]
0.21 to 10 |  | Cc1c(COc2cc(OCc3cncc(C#N)c3)c(CN[C@](C)(CO)C(=O)O)cc2Cl)cccc1-c1cccc(OCCCNC(CO)(CO)CO)c1Cl [Example 2040, (R)-2-((5-chloro-4-((2′-chloro-3′-(3-((1,3-dihydroxy-2-(hydroxymethyl)propan-2-yl)amino)propoxy)-2-methyl-[1,1′-biphenyl]-3-yl)methoxy)-2-((5-cyanopyridin-3-yl)methoxy)benzyl)amino)-3-hydroxy-2-methylpropanoic Acid]
 | 1 | Cc1c(COc2cc(OCc3cncc(C#N)c3)c(CN3CCCC[C@H]3C(=O)O)cc2Cl)cccc1-c1cccc(OCCCN2CCC(CO)(C(=O)O)C2)c1Cl (stereo partly drawn) [Example 1106, (2S)-1-(4-((3′-(3-(3-carboxy-3-(hydroxymethyl)pyrrolidin-1-yl)propoxy)-2′-chloro-2-methyl-[1,1′-biphenyl]-3-yl)methoxy)-5-chloro-2-((5-cyanopyridin-3-yl)methoxy)benzyl)piperidine-2-carboxylic Acid]
0.21 to 10 |  | Cc1c(COc2cc(OCc3cncc(C#N)c3)c(CNCC(=O)O)cc2Cl)cccc1-c1cccc(OCCCN2CC[C@@H](O)C2)c1C [Example 4147, (R)-(5-chloro-2-((5-cyanopyridin-3-yl)methoxy)-4-((3′-(3-(3-hydroxypyrrolidin-1-yl)propoxy)-2,2′-dimethyl-[1,1′-biphenyl]-3-yl)methoxy)benzyl)glycine]
0.21 to 10 |  | COC(=O)C1(O)CCN(CCCOc2cccc(-c3cccc(COc4cc(OCc5cncc(S(C)(=O)=O)c5)c(CN[C@](C)(CO)C(=O)O)cc4Cl)c3C)c2C)C1 (stereo partly drawn) [Example 1055, (2R)-2-((5-chloro-4-((3′-(3-(3-hydroxy-3-(methoxycarbonyl)pyrrolidin-1-yl)propoxy)-2,2′-dimethyl-[1,1′-biphenyl]-3-yl)methoxy)-2-((5-(methylsulfonyl)pyridin-3-yl)methoxy)benzyl)amino)-3-hydroxy-2-methylpropanoic Acid]
0.21 to 10 |  | Cc1c(COc2cc(OCc3cncc(C(=N)N4CCCC(CO)C4)c3)c(CNC(C)(CO)CO)cc2Cl)cccc1-c1cccc(OCCCN2CCCC(CO)C2)c1Cl (stereo not shown) [Example 2099, 2-((5-chloro-4-((2′-chloro-3′-(3-(3-(hydroxymethyl)piperidin-1-yl)propoxy)-2-methyl-[1,1′-biphenyl]-3-yl)methoxy)-2-((5-((3-(hydroxymethyl)piperidin-1-yl)(imino)methyl)pyridin-3-yl)methoxy)benzyl)amino)-2-methylpropane-1,3-diol]
0.21 to 10 |  | Cc1c(COc2cc(OCc3cncc(C#N)c3)c(CN3CCCC[C@H]3C(=O)O)cc2Cl)cccc1-c1cccc(OCCCN2CCOC(C(F)(F)F)C2)c1C (stereo partly drawn) [Example 3058, (2S)-1-(5-chloro-2-((5-cyanopyridin-3-yl)methoxy)-4-((2,2′-dimethyl-3′-(3-(2-(trifluoromethyl)morpholino)propoxy)-[1,1′-biphenyl]-3-yl)methoxy)benzyl)piperidine-2-carboxylic Acid]
0.21 to 10 |  | Cc1c(OCCCN2CCCCC2)cccc1-c1cccc(COc2cc(OCc3cncc(C#N)c3)c(CNC(C)(CO)CO)cc2Cl)c1Cl [Example 2308, 5-((4-chloro-5-((2-chloro-2′-methyl-3′-(3-(piperidin-1-yl)propoxy)-[1,1′-biphenyl]-3-yl)methoxy)-2-(((1,3-dihydroxy-2-methylpropan-2-yl)amino)methyl)phenoxy)methyl)nicotinonitrile]
